No end group written: not given here.
How the values were obtained:
P. aeruginosa [1] = assay: Minimal inhibitory concentration (MIC) assay, broth microdilution; assay type: cell-based, Pseudomonas aeruginosa
E. coli = assay: as above; assay type: cell-based, Escherichia coli; conditions: for MIC Eco 25922: E. coli 25922; for MIC Eco 43745: E. coli 43745, in the presence of PBS
Procedure: (§1) Daughter plates were prepared as follows.
(§2) Cultured media were prepared as follows.

P. aeruginosa ATCC 27853 = assay: Resistance rate determination (standard and micro-dotting protocols); assay type: cell-based, Pseudomonas aeruginosa
Source text: . These rates are considered favorable when compared to published rates in the 10^−5 to 10^−8 range. […]

P. aeruginosa 27853 = assay: MIC / killing activity in the presence of human serum (hsMIC, 50% human serum); assay type: cell-based, Pseudomonas aeruginosa; conditions: for 50% hsMIC Pae 27853: P. aeruginosa 27853, 50% human serum; for hsMIC/MIC: ratio
Procedure: In an embodiment, the MIC is determined in the presence of phosphate-buffered saline (PBS). In an embodiment, the MIC or hsMIC is determined on per ADC basis. In an embodiment, the MIC or hsMIC is determined on per payload or antimicrobial peptide basis.

K. pneumoniae = assay: Minimal inhibitory concentration (MIC) assay, broth microdilution; assay type: cell-based, Klebsiella pneumoniae; conditions: K. pneumoniae 700603; in the presence of PBS
Procedure: as §1, §2

S. aureus = assay: as above; assay type: cell-based, Staphylococcus aureus; conditions: S. aureus 29213; in the presence of PBS
Procedure: as §1, §2

P. aeruginosa [2] = assay: Microbial killing assay (percent killing, CFU); assay type: cell-based, Pseudomonas aeruginosa; conditions: for 50% Killing Activity, BAA-2108: MDR P. aeruginosa strain BAA-2108; for 50% Killing Activity, BAA-2110: MDR P. aeruginosa strain BAA-2110; for 50% Killing Activity, BAA-2114: MDR P. aeruginosa strain BAA-2114; for 50% Killing Activity, Pae 27853: P. aeruginosa strain 27853, Table 10
Procedure: Bactericidal assay: Direct killing activity of the ADC can be measured against two well described laboratory strains of P. aeruginosa (PA14 and PA01) and no less than three clinical strains of P. aeruginosa, including MDR and Pan-resistant strains. These assays are conducted in the absence of complement or effector cells. Activity in this assay can provide insight on the inherent killing activity of the ADC.
The microbial killing assay was performed as follows. Bacterial cells were grown aerobically overnight on agar plates at 37° C. Overnight plates were used to seed 30 ml cultures of growth media in 250 ml vented flasks. Cultures were grown aerobically at 37° C., shaking at 150 rpm. Growth was monitored at A600 nM and bacterial cells were harvested at mid-log growth. Ten ml of culture was pelleted at 4000×G for 10 minutes and washed one time with PBS plus 1% BSA before re-suspending in 2 ml PBS+BSA. […] Cultures were diluted to 1×10^4 cells/ml in PBS plus BSA. Test articles were diluted in PBS+1% BSA and 50 μl per concentration tested was loaded into a 96 well polypropylene microtiter plate. Fifty μl of diluted culture was added to all test wells as well as no compound control wells. Plates were shaken and incubated at 37° C., 90 minutes, static. Ten μl from each assay well was plated onto agar plates and incubated at 37° C. overnight. Percent killing was determined by the CFU for test wells compared to the CFU for no compound control wells.

[3] = P. aeruginosa 27853, in the presence of PBS
[4] = P. aeruginosa 39324, in the presence of PBS

With “RLGNFFRKAKKKIGRGLKKIGQKIKDFLGNLVPRTES [peptide 128]” the “MIC Pae 27853” value (P. aeruginosa [1]; P. aeruginosa 27853) was 8 µg/mL.
“GAFGNFLKGVAKKAGLKILSIAQCKLFGTC [peptide 70]” was tested, and the “MIC Eco 25922” value (E. coli) was 4 µg/mL and the “MIC Pae 27853” value (P. aeruginosa [1]; P. aeruginosa 27853) was 8 µg/mL.
With “GLRKRLRKFRNKIKEKLKKIGQKIQGLLPKLA [Peptide 33]” the “MIC Eco 25922” value (E. coli) was 8 µg/mL and the “MIC Pae 27853” value (P. aeruginosa [1]; P. aeruginosa 27853) was 8 µg/mL.
For “GIGKFLKKAKKFGKAFVKILKK-NH2 [Peptide P32]”, the “resistance rate, Micro-dotting” value (P. aeruginosa ATCC 27853; 2x MIC) was 1.08E−07, the “resistance rate, Micro-dotting” value (P. aeruginosa ATCC 27853; 4x MIC) was 9.59E−08 and the “resistance rate, Standard” value (P. aeruginosa ATCC 27853; 4x MIC) was <1.6E−09. For the same substance, the “growth of resistant colonies, standard protocol” value (P. aeruginosa ATCC 27853; 4×MIC and above) was “no growth was observed”, the “resistance rate, Micro-dotting” value (P. aeruginosa ATCC 27853; 8x MIC) was 8.02E−09 and the “resistance rate, Standard” value (P. aeruginosa ATCC 27853; 8x MIC) was <1.6E−09.
For “GGGGIGKFLKKAKKFGKAFVKILKK [Peptide P261]”, the “MIC Eco 43745” value (E. coli) was 4 µg/mL.
In the case of GIGKFLKKAKKFGKAFVKILKK [peptide 109], the “MIC Eco 25922” value (E. coli) is reported as 4 µg/mL and the “MIC Pae 27853” value (P. aeruginosa [1]; P. aeruginosa 27853) is reported as 8 µg/mL.
In the case of “GGGKRFKKFFKKLKNSVKKRAKKFFKKPRVIGVSIPF [Peptide P296]”, the “50% hsMIC Pae 27853” value (P. aeruginosa 27853) is reported as 1 µg/mL, the hsMIC/MIC (P. aeruginosa 27853) is reported as 0.25 and the “MIC Eco 43745” value (E. coli) is reported as 4 µg/mL. The “MIC Pae 27853” value (P. aeruginosa [1]; [3]) was 4 µg/mL and the “MIC Pae 39324” value (P. aeruginosa [1]; [4]) was 2 µg/mL.
For “GGG-D-Dab-cyclic(L-Dab-L-Dab-D-Leu-L-Phe-L-Dab-L-Dab-L-Leu) [GGG-Octapeptin]”, the “MIC Kpn 700603” value (K. pneumoniae) was >128 µg/mL, the “50% hsMIC Pae 27853” value (P. aeruginosa 27853) was 2 µg/mL and the hsMIC/MIC (P. aeruginosa 27853) was 1. For the same substance, the “MIC Sau 29213” value (S. aureus) was >128 µg/mL, the “MIC Pae 27853” value (P. aeruginosa [1]; [3]) was 2 µg/mL and the “MIC Pae 39324” value (P. aeruginosa [1]; [4]) was 2 µg/mL.
“GGGKFFRKLKKSVKKRAKEFFKKPRVIGVSIPF [Peptide P297]” was tested, and the “50% hsMIC Pae 27853” value (P. aeruginosa 27853) was 8 µg/mL, the hsMIC/MIC (P. aeruginosa 27853) was 2 and the “50% Killing Activity, BAA-2108” value (P. aeruginosa [2]) was 0.28 µg/mL. The “50% Killing Activity, BAA-2110” value (P. aeruginosa [2]) was 0.28 µg/mL, the “50% Killing Activity, BAA-2114” value (P. aeruginosa [2]) was 0.07 µg/mL and the “50% Killing Activity, Pae 27853” value (P. aeruginosa [2]) was 0.04 µg/mL. For the same substance, the “MIC Eco 43745” value (E. coli) was 2 µg/mL, the “MIC Pae 27853” value (P. aeruginosa [1]; [3]) was 4 µg/mL and the “MIC Pae 39324” value (P. aeruginosa [1]; [4]) was 2 µg/mL. The “MIC (P. aeruginosa ATCC 27853)” value (P. aeruginosa [1]) was 1 to 4 µg/mL.
In the case of “GGGGLRKRLRKFRNKIKEKLKKIGQKIQGLLPKLA [Peptide P271]”, the “MIC Eco 43745” value (E. coli) is reported as 4 µg/mL.
“GGGLLGDFFRKSKEKIGKEFKRIVQRIKDFLRNLVPRTES [Peptide P265]” was tested, and the “MIC Kpn 700603” value (K. pneumoniae) was >128 µg/mL, the “50% hsMIC Pae 27853” value (P. aeruginosa 27853) was >128 µg/mL and the hsMIC/MIC (P. aeruginosa 27853) was >4. For the same substance, the “MIC Eco 43745” value (E. coli) was 8 µg/mL.
For “GGGRGLRRLGRKIAHGVKKYGPTVLRIIKKYG [Peptide P294]”, the “MIC Kpn 700603” value (K. pneumoniae) was 8 µg/mL and the “MIC Eco 43745” value (E. coli) was 2 µg/mL.
For “(MAL)-(EG3)-GIGKFLKKAKKFGKAFVKILKK [peptide 21]”, the “MIC Eco 25922” value (E. coli) was 8 µg/mL.
“GIGKFLKKAKKFGKAFVKILKKGGGGSGGGGS [peptide 24]” was tested, and the “MIC Pae 27853” value (P. aeruginosa [1]; P. aeruginosa 27853) was 8 µg/mL.
With “GGGGLRRLGRKIAHGIKKYGPTILRIIRIAG [Peptide P293]” the “MIC Kpn 700603” value (K. pneumoniae) was 4 µg/mL, the “MIC Eco 43745” value (E. coli) was 4 µg/mL and the “MIC Pae 27853” value (P. aeruginosa [1]; [3]) was 8 µg/mL. The “MIC Pae 39324” value (P. aeruginosa [1]; [4]) was 2 µg/mL.
For Colistin [reference compound], the “resistance rate, Micro-dotting” value (P. aeruginosa ATCC 27853; 2x MIC) was 1.08E−07, the “resistance rate, Standard” value (P. aeruginosa ATCC 27853; 2x MIC) was 6.50E−08 and the “resistance rate, Micro-dotting” value (P. aeruginosa ATCC 27853; 4x MIC) was 2.10E−09. The “resistance rate, Standard” value (P. aeruginosa ATCC 27853; 4x MIC) was 1.60E−09, the “resistance rate, Micro-dotting” value (P. aeruginosa ATCC 27853; 8x MIC) was <1.1E−09 and the “resistance rate, Standard” value (P. aeruginosa ATCC 27853; 8x MIC) was <1.6E−09.
For Ceftazadime [reference compound], the “50% hsMIC Pae 27853” value (P. aeruginosa 27853) was 1 µg/mL, the hsMIC/MIC (P. aeruginosa 27853) was 1 and the “MIC Pae 27853” value (P. aeruginosa [1]; [3]) was 1 µg/mL. The “MIC Pae 39324” value (P. aeruginosa [1]; [4]) was 1 µg/mL, the “MIC Pae 27853” value (P. aeruginosa [1]; strain Pae27853) was 1 µg/mL and the “MIC Pae 39324” value (P. aeruginosa [1]; strain Pae39324) was 2 µg/mL.
With “GGGGRFKRFRKKFKKLFKKLSPVIPLLHLG [Peptide P295]” the “50% hsMIC Pae 27853” value (P. aeruginosa 27853) was 2 µg/mL, the hsMIC/MIC (P. aeruginosa 27853) was 0.5 and the “50% Killing Activity, BAA-2108” value (P. aeruginosa [2]) was 0.6 µg/mL. For the same substance, the “50% Killing Activity, BAA-2110” value (P. aeruginosa [2]) was 0.6 µg/mL, the “50% Killing Activity, BAA-2114” value (P. aeruginosa [2]) was 0.14 µg/mL and the “50% Killing Activity, Pae 27853” value (P. aeruginosa [2]) was 0.3 µg/mL. For the same substance, the “MIC Pae 27853” value (P. aeruginosa [1]; [3]) was 4 µg/mL, the “MIC Pae 39324” value (P. aeruginosa [1]; [4]) was 4 µg/mL and the “MIC (P. aeruginosa ATCC 27853)” value (P. aeruginosa [1]) was 1 to 4 µg/mL.
“GGGGSGGGGSGIGKFLKKAKKFGKAFVKILKK [peptide 23]” was tested, and the “MIC Eco 25922” value (E. coli) was 8 µg/mL.
